Measurements published in EP0962138B1, “Pesticidal method” (BASF Agro B.V., Arnhem (NL), Wädenswil-Branch, priority 1998, dated 1999).

Key:
Otiorynchus sulcatus = assay: Compost incorporation test, protection of potted plants from weevil larvae (Example 1); type: in vivo; conditions: Thuya plicata Atrovirens
Procedure: In a twenty-replicate test, Compound A was incorporated in compost by mixing a 2% w/w granule with the compost (Klasmann Substrat 2 (Peat based) ) using a small mechanical mixer. Plants of Thuya plicata Atrovirens were potted in the compost and allowed to grow for two months and then about 15 eggs of Otiorynchus sulcatus were added to the soil and covered with a small layer of compost. As a comparison, some compost was untreated and other compost was treated with the standard chlorpyrifos in the form of the commercial product suSCon Green®. After 27 days the soil was reinfested with 15 more eggs. The plant pots were enclosed such that the plants were exposed to light and the adult beetles which emerged could not escape.
Of the twenty replicates of each test, five were assessed after 6 months and fifteen were assessed after 18 months for numbers of larvae and adults. After 6 months the following results were observed: […]

vine weevil = assay: Curative drench treatment of infested potted plants (Example 2); type: in vivo; conditions: after 6 months, Fuchsia triphylla hybrid cv. Koralle
Procedure: In 20-replicate tests, Fuchsia triphylla hybrid cv. Koralle was infested with 15 eggs per pot of vine weevil. Compound A in the form of an 80% water dispersible granule (Regent 800 WG) was suspended in water and added to each pot at the indicated rate per surface area of the pot at various dilutions. After 6 months, the trials were assessed. […] Drench Treatments

[1] = Dose 75 g/m^3 in compost (suSCon Green), after 6 months, five replicates
[2] = Dose 75 g/m^3 in compost (suSCon Green), after 18 months, fifteen replicates
[3] = Dose 2.5 g/m^3 in compost, after 6 months, five replicates
[4] = Dose 2.5 g/m^3 in compost, after 18 months, fifteen replicates
[5] = Dose 5 g/m^3 in compost, after 6 months, five replicates
[6] = Dose 5 g/m^3 in compost, after 18 months, fifteen replicates
[7] = Dose 7.5 g/m^3 in compost, after 6 months, five replicates
[8] = Dose 7.5 g/m^3 in compost, after 18 months, fifteen replicates
[9] = Dose 15 g/m^3 in compost, after 6 months, five replicates
[10] = Dose 15 g/m^3 in compost, after 18 months, fifteen replicates

## CCOP(=S)(OCC)Oc1nc(Cl)c(Cl)cc1Cl [Chlorpyrifos, chlorpyrifos, reference compound]
Otiorynchus sulcatus; [1]
  % Control: 87%
  Number per pot: 0.8
  Total # larvae: 4
Otiorynchus sulcatus; [2]
  % Control: 0%
  % Survival of Plants: 100%
  Number per pot: 3.1
  Total # larvae: 47
  Total Dead Plants: 0

## N#Cc1nn(-c2c(Cl)cc(C(F)(F)F)cc2Cl)c(N)c1[S+]([O-])C(F)(F)F (centres unmarked) [Compound A, 5-amino-1-(2,6-dichloro 4-trifluoromethylphenyl) 4-trifluoromethylsulfinyl-3-cyanopyrazole]
Vine weevil
  Protection of the plants compared with the commercial standard: protected the plants substantially better than the commercial standard fonofos
Otiorynchus sulcatus; [3]
  % Control: 100%
  Number per pot: 0
  Total # larvae: 0
Otiorynchus sulcatus; [4]
  % Control: 100%
  % Survival of Plants: 100%
  Number per pot: 0
  Total # larvae: 0
  Total Dead Plants: 0
Otiorynchus sulcatus; [5]
  % Control: 100%
  Number per pot: 0
  Total # larvae: 0
Otiorynchus sulcatus; [6]
  % Control: 100%
  % Survival of Plants: 100%
  Number per pot: 0
  Total # larvae: 0
  Total Dead Plants: 0
Otiorynchus sulcatus; [7]
  % Control: 100%
  Number per pot: 0
  Total # larvae: 0
Otiorynchus sulcatus; [8]
  % Control: 100%
  % Survival of Plants: 100%
  Number per pot: 0
  Total # larvae: 0
  Total Dead Plants: 0
Otiorynchus sulcatus; [9]
  % Control: 100%
  Number per pot: 0
  Total # larvae: 0
Otiorynchus sulcatus; [10]
  % Control: 100%
  % Survival of Plants: 100%
  Number per pot: 0
  Total # larvae: 0
  Total Dead Plants: 0
